Target: T1, Ketohexokinase (Homo sapiens, UniProt P50053)
T1 sequence (P50053 whole entry): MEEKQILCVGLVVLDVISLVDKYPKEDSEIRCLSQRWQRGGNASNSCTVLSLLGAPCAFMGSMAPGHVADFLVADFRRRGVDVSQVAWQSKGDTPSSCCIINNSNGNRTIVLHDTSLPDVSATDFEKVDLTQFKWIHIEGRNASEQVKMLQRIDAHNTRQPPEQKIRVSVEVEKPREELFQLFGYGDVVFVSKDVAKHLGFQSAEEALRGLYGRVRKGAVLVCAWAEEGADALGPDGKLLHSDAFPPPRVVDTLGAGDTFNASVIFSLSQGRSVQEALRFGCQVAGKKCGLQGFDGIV
Assay: Enzyme Assay: An enzymatic assay was developed to measure KHK-mediated conversion of D-fructose to Fructose-1-P (F-1-P) using High Throughput Mass Spectroscopy (HTMS) as a means of product detection. […] The assay was carried out in 384-well plate format.

CSc1nn(-c2ccc(Br)cc2)c2cc(OC3CCNCC3)ccc12
IC50: 2050 nM

Source: ChEMBL document CHEMBL3638794, “Indazole compounds useful as ketohexokinase inhibitors” (2014)
